The inhibition is the relative decrease from the control value, in per cent.

The target in this assay is T1, human vasopressin V2 receptor subtype (Homo sapiens, UniProt P30518).
T1 construct: host or cells: CHO cells (pZeoSV vector)
In words: Vasopressin binding in Chinese Hamster Ovary cell membranes expressing human vasopressin V2 subtype receptors. Conditions: 100 nM, CHO cell membranes, [3H]arginine vasopressin, values without parentheses. Here is the method: Vasopressin Binding in Chinese Hamster Ovary Cell Membranes Expressing Human Vasopressin V2 Subtype Receptors
Chinese Hamster Ovary (CHO) cells stably transfected with the human V2 subtype receptors were obtained from M. Thibonnier, Case Western Reserve University School of Medicine, Cleveland, Ohio.
A. Passaging and Amplification of Cells:
The trypsin is removed by aspiration and the cells dislodged by tapping. Cell Culture medium (e.g. 30 mL for 1:30 split) is immediately added and mixed well to inactivate trypsin. 1 mL of detached cells is added to new culture flasks containing fresh Cell Culture medium (e.g. into 25 mL per T-150 flask), and mixed gently. The cells are incubated at 37° C. in 5% CO2. The medium is changed at 3 to 4 day interval (or as appropriate). […] All steps are done under sterile conditions. B. Membrane Preparation: The cells are washed twice gently with Hank's Balanced Salt solution (e.g. use 10 mL per T-150 flask). […] The contents are transferred to centrifuge tubes (50 mL) kept in ice bath. All subsequent steps are done at 4° C. The tubes are centrifuged at 300×g for 15 min (1380 rpm on SORVAL, Model RT6000D, using the rotor for 50 mL tubes). The supernatant is discarded and the cells suspended in homogenizing buffer (10 mM Tris-HCl containing 0.25 M sucrose and 1 mM EDTA, pH 7.4) ensuring that the volume of the buffer is about ten times the volume of the cell pellet. The cells are pooled into a centrifuge tube (50 mL) and homogenized with a Polytron at setting 6 for 10 sec. The homogenate is transferred into a Potter-Elvjehm homogenizer and homogenized with 3 strokes. The homogenate is centrifuged at 1500×g for 60 min at 4° C. (3100 rpm using SORVAL, model RT6000D, using the rotor for 50 mL tubes). The pellet is discarded. The supernatant is centrifuged at 100,000×g for 60 min. at 4° C. (Beckman L8-80M ultracentrifuge; spin at 37,500 rpm with rotor type 70 Ti for 50 mL tubes; 38,000 rpm with type 80Ti for 15 mL tubes; or 35,800 rpm with rotor type 45Ti). The supernantant is discarded and the pellet suspended in 3 to 4 mL of Tris buffer (50 mM TRIS-HCl, pH 7.4). The protein content is estimated by the Bradford or Lowry method. The volume of the membrane suspension is adjusted with the membrane buffer (50 mM Tris-HCl containing 0.1% BSA and 0.1 mM PMSF) to give 3.0 mg/mL (or as appropriate) of protein. The membranes are aliquoted and stored at −70° C. C. Radioligand Binding Assay: In wells of a 96-well format microtiter plate, is added 90, 110 or 130 μL (to make up a final volume of 200 μL) of assay buffer containing 50 mM of Tris-HCl (pH 7.4), […], 1 mg % aprotinin, 1 mg % leupeptin, 2 mg % 1,10-phenanthroline, 10 mg % trypsin inhibitor, and 0.1 mM PMSF. The inhibitors are added on the day of the experiment. The components are mixed at room temperature, and then kept in ice bath following adjustment of the pH to 7.4. […] For vasopressin and other peptide ligands 20 μL of 50% DMSO is added and the assay buffer volume is adjusted accordingly. To each well is added 50 μL of frozen membrane suspension thawed immediately prior to use and diluted in assay buffer to the required concentration (equivalent to 25 to 50 μg of protein/well as needed). 20 μL of 8 nM [^3H]arginine vasopressin ligand in the assay buffer, prepared just before use is added and incubated at room temperature for 60 min. shaking the plate on a mechanical shaker for the first 15 min. The incubation is stopped by rapid filtration of the plate contents followed by wash with ice-cold buffer (50 mM Tris-HCl, pH 7.4) using a cell harvester (Tomtek and Printed filtermat-B filter paper). The filter paper is thoroughly dried (7–12 min. in a microwave oven) and impregnated with MeltiLex B/H melt-on scintillation wax sheets and the radioactivity counted in a betaplate scintillation counter.

T1 sequence (P30518 whole entry): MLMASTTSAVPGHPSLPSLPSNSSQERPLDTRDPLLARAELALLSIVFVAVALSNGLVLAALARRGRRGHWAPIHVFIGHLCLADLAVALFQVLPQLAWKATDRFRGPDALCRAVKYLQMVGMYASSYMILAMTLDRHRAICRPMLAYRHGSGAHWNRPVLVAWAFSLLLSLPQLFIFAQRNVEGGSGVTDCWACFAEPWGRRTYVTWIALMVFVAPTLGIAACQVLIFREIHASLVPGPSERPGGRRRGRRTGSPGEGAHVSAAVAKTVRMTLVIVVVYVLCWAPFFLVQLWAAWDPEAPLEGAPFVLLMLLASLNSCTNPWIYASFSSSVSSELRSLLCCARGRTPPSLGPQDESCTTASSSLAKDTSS

On to `COc1ccccc1-c1ccc(C(=O)N2Cc3ccc(C(=O)N4CCC(N5CCCCC5)CC4)n3Cc3ccccc32)cc1OC` [Example 119, {10-[(2,2′-Dimethoxy-[1,1′-biphenyl]-4-yl)carbonyl]-10,11-dihydro-5H-pyrrolo[2,1-c][1,4]benzodiazepin-3-yl}[4-(1-piperidinyl)-1-piperidinyl]methanone], for which the inhibition at 0.1 µM came to 15%.

Regarding `COc1cccc(-c2ccc(C(=O)N3Cc4ccc(C(=O)N5CCC(N6CCCCC6)CC5)n4Cc4ccccc43)cc2OC)c1` [Example 120, {10-[(2,3′-Dimethoxy-[1,1′-biphenyl]-4-yl)carbonyl]-10,11-dihydro-5H-pyrrolo[2,1-c][1,4]benzodiazepin-3-yl}[4-(1-piperidinyl)-1-piperidinyl]methanone], the inhibition at 0.1 µM worked out at 6%.

Turning to `O=C(c1ccc2n1Cc1ccccc1N(C(=O)c1ccc(-c3cccc4ccccc34)cc1Cl)C2)N1CCC(N2CCCCC2)CC1` [Example 121], the “V2 % inhibition @ 100 nM” value is given as 13%.

For the compound `Cc1cc(C(=O)N2Cc3ccc(C(=O)N4CCC(N5CCCCC5)CC4)n3Cc3ccccc32)ccc1-c1ccccc1C(F)(F)F` [Example 122, {10-[(2-Methyl-2′-(trifluoromethyl) -[1,1′-biphenyl]-4-yl)carbonyl]-10,11-dihydro-5H -pyrrolo[2,1-c][1,4]benzodiazepin-3-yl}[4-(1-piperidinyl)-1-piperidinyl]methanone], the inhibition at 0.1 µM came out at 8%.

Consider `COc1ccccc1-c1ccc(C(=O)N2Cc3ccc(C(=O)NCCCn4ccnc4)n3Cc3ccccc32)cc1C` [Example 123, N-[3-(1H-Imidazol-1-yl)propyl]-10-[(2′-methoxy-2-methyl[1,1′-biphenyl]-4-yl)carbonyl]-10,11-dihydro-5H-pyrrolo[2,1-c][1,4]benzodiazepine-3-carboxamide], for which the inhibition at 0.1 µM was 15%.

`Cc1ccccc1-c1ccc(C(=O)N2Cc3ccc(C(=O)NCCCn4ccnc4)n3Cc3ccccc32)cc1C` [Example 124, 10-[(2,2′-Dimethyl[1,1′-biphenyl]-4-yl)carbonyl]-N-[3-(1H-imidazol-1-yl)propyl]-10,11-dihydro-5H-pyrrolo[2,1-c][1,4]benzodiazepine-3-carboxamide]: the inhibition at 0.1 µM stood at 21%.

Take `COc1cccc(-c2ccc(C(=O)N3Cc4ccc(C(=O)NCCCn5ccnc5)n4Cc4ccccc43)cc2C)c1` [Example 125, N-[3-(1H-Imidazol-1-yl)propyl]-10-[(3′-methoxy-2-methyl[1,1′-biphenyl]-4-yl)carbonyl]-10,11-dihydro-5H-pyrrolo[2,1-c][1,4]benzodiazepine-3-carboxamide]: the inhibition at 0.1 µM turned out to be 8%.

On to `COc1ccccc1-c1ccc(C(=O)N2Cc3ccc(C(=O)NCCCn4ccnc4)n3Cc3ccccc32)cc1` [Example 126, N-[3-(1H-Imidazol-1-yl)propyl]-10-[(2′-methoxy[1,1′-biphenyl]-4-yl)carbonyl]-10,11-dihydro-5H-pyrrolo[2,1-c][1,4]benzodiazepine-3-carboxamide], for which the inhibition at 0.1 µM came out at 18%.

On to `Cc1ccccc1-c1ccc(C(=O)N2Cc3ccc(C(=O)NCCCn4ccnc4)n3Cc3ccccc32)cc1` [Example 127, N-[3-(1H-Imidazol-1-yl)propyl]-10-[(2′-methyl[1,1′-biphenyl]-4-yl)carbonyl]-10,11-dihydro-5H-pyrrolo[2,1-c][1,4]benzodiazepine-3-carboxamide], for which the inhibition at 0.1 µM worked out at 3%.

In the case of `COc1cc(C(=O)N2Cc3ccc(C(=O)NCCCn4ccnc4)n3Cc3ccccc32)ccc1-c1ccccc1C` [Example 128, N-[3-(1H-Imidazol-1-yl)propyl]-10-[(2-methoxy-2′-methyl[1,1′-biphenyl]-4-yl)carbonyl]-10,11-dihydro-5H-pyrrolo[2,1-c][1,4]benzodiazepine-3-carboxamide], the inhibition at 0.1 µM was 17%.

As for `COc1cc(-c2ccccc2C)c(Cl)cc1C(=O)N1Cc2ccc(C(=O)NCCCn3ccnc3)n2Cc2ccccc21` [Example 129, 10-[(6-Chloro-3-methoxy-2′-methyl[1,1′-biphenyl]-4-yl)carbonyl]-N-[3-(1H-imidazol-1-yl)propyl]-10,11-dihydro-5H-pyrrolo[2,1-c][1,4]benzodiazepine-3-carboxamide], the inhibition at 0.1 µM came out at 5%.

As to `COc1cccc(-c2cc(OC)c(C(=O)N3Cc4ccc(C(=O)NCCCn5ccnc5)n4Cc4ccccc43)cc2Cl)c1` [Example 130, 10-[(6-Chloro-3,3′-dimethoxy[1,1′-biphenyl]-4-yl)carbonyl]-N-[3-(1H-imidazol-1-yl)propyl]-10,11-dihydro-5H-pyrrolo[2,1-c][1,4]benzodiazepine-3-carboxamide], the inhibition at 0.1 µM was 5%.

As for `COc1cc(C(=O)N2Cc3ccc(C(=O)NCCCn4ccnc4)n3Cc3ccccc32)ccc1-c1cccc2ccccc12` [Example 131, N-[3-(1H-Imidazol-1-yl)propyl]-10-[3-methoxy-4-(1-naphthyl)benzoyl]-10,11-dihydro-5H-pyrrolo[2,1-c][1,4]benzodiazepine-3-carboxamide], the inhibition at 0.1 µM is 13%.

As to `COc1ccccc1-c1ccc(C(=O)N2Cc3ccc(C(=O)NCCCn4ccnc4)n3Cc3ccccc32)cc1OC` [Example 132, 10-[(2,2′-Dimethoxy[1,1′-biphenyl]-4-yl)carbonyl]-N-[3-(1H-imidazol-1-yl)propyl]-10,11-dihydro-5H-pyrrolo[2,1-c][1,4]benzodiazepine-3-carboxamide], the inhibition at 0.1 µM was 16%.

In the case of `COc1cccc(-c2ccc(C(=O)N3Cc4ccc(C(=O)NCCCn5ccnc5)n4Cc4ccccc43)cc2OC)c1` [Example 133, 10-[(2,3′-Dimethoxy[1,1′-biphenyl]4-yl)carbonyl]-N-[3-(1H-imidazol-1-yl)propyl]-10,11-dihydro-5H-pyrrolo[2,1-c][1,4]benzodiazepine-3-carboxamide], the inhibition at 0.1 µM was 8%.

For `O=C(NCCCn1ccnc1)c1ccc2n1Cc1ccccc1N(C(=O)c1ccc(-c3cccc4ccccc34)cc1Cl)C2` [Example 134, 10-[2-Chloro-4-(1-naphthyl)benzoyl]-N-[3-(1H-imidazol-1-yl)propyl]-10,11-dihydro-5H-pyrrolo[2,1-c][1,4]benzodiazepine-3-carboxamide], the inhibition at 0.1 µM was determined as 16%.

As to `Cc1cc(C(=O)N2Cc3ccc(C(=O)NCCCn4ccnc4)n3Cc3ccccc32)ccc1-c1ccccc1C(F)(F)F` [Example 135, N-[3-(1H-Imidazol-1-yl)propyl]-10-{[2-methyl-2′-(trifluoromethyl)[1,1′-biphenyl]-4-yl]carbonyl}-10,11-dihydro-5H-pyrrolo[2,1-c][1,4]benzodiazepine-3-carboxamide], the inhibition at 0.1 µM amounted to 1%.

For `COc1ccccc1-c1ccc(C(=O)N2Cc3ccc(C(=O)N4CCC(N5CCCC5)CC4)n3Cc3ccccc32)cc1C` [Example 137, {10-[(2′-Methoxy-2-methyl[1,1′-biphenyl]-4-yl)carbonyl]-10,11-dihydro-5H-pyrrolo[2,1-c][1,4]benzodiazepin-3-yl}[4-(1-pyrrolidinyl)-1-piperidinyl]methanone], the inhibition at 0.1 µM was -4%.

Consider `Cc1ccccc1-c1ccc(C(=O)N2Cc3ccc(C(=O)N4CCC(N5CCCC5)CC4)n3Cc3ccccc32)cc1C` [Example 138, {10-[(2,2′-Dimethyl[1,1′-biphenyl]-4-yl)carbonyl]-10,11-dihydro-5H-pyrrolo[2,1-c][1,4]benzodiazepin-3-yl}[4-(1-pyrrolidinyl)-1-piperidinyl]methanone], for which the inhibition at 0.1 µM worked out at 29%.
